Starred links: 1 amine or outer side, 2 acyl side, 3 side chain; linkers in the order of their positions; H or OH if unused. Non-standard residues stand in square brackets, D forms with d. Residues, ends and D or L forms follow the SMILES beside them. *: point of attachment. DOTA = O=C(O)CN1CCN(CC(=O)O)CCN(CC(=O)*)CCN(CC(=O)O)CC1; αMeW = C[C@](N)(Cc1c[nH]c2ccccc12)C(=O)O; Sta = CC(C)C[C@H](N)[C@@H](O)CC(=O)O; Bta = N[C@@H](Cc1csc2ccccc12)C(=O)O; Gly(cPent) = N[C@H](C(=O)O)C1CCCC1; X1 = O=C(CN1CCC(N[*:1])CC1)[*:2]; Chg = N[C@H](C(=O)O)C1CCCCC1; dOrn = NCCC[C@@H](N)C(=O)O; hSer = N[C@@H](CCO)C(=O)O; Nle = CCCC[C@H](N)C(=O)O; dDap = NC[C@@H](N)C(=O)O; βAla = NCCC(=O)O; Sar = CNCC(=O)O

The data set in a line: Plasma studies: metabolic stability in vitro in human plasma (radio RP-HPLC). In kind it is in vitro ADME. On the procedure:
Metabolic stability in vitro was determined applying a procedure published by Linder et al. that was slightly modified. Immediately after labeling, human (200 μL) or murine (100 μL) plasma was added and the mixture was incubated at 37° C. for 72±2 h (or 6±0.5 h). Proteins were precipitated by treatment with ice-cold EtOH (150 μL [human], 100 μL [murine]) and ice-cold MeCN (450 μL [human], 300 μL [murine]), followed by centrifugation for 20 min at 13000 rpm. The supernatants were decanted and further analyzed using radio RP-HPLC. […]
With `CC(C)C[C@H](NC(=O)C[C@H](O)[C@H](CC(C)C)NC(=O)[C@H](Cc1c[nH]cn1)NC(=O)CNC(=O)[C@@H](NC(=O)[C@H](C)NC(=O)[C@H](Cc1c[nH]c2ccccc12)NC(=O)[C@H](CCC(N)=O)NC(=O)[C@@H](Cc1ccccc1)NC(=O)[C@H]1CC[C@H](CNC(=O)CN2CCN(CC(=O)O)CCN(CC(=O)O)CCN(CC(=O)O)CC2)CC1)C(C)C)C(N)=O` [DOTA-[Txa^5]MJ9], the “Amount of intact tracer after incubation in human plasma for 72 ± 2 h (n = 2)” value (“Amount of intact tracer after incubation” below) was 24.8 ± 0.3.
Consider `CC(C)C[C@H](NC(=O)C[C@H](O)[C@H](CC(C)C)NC(=O)[C@H](Cc1c[nH]cn1)NC(=O)CNC(=O)[C@@H](NC(=O)[C@H](C)NC(=O)[C@H](Cc1c[nH]c2ccccc12)NC(=O)[C@H](CCO)NC(=O)[C@@H](CCCNC(=N)N)NC(=O)CN1CCC(NC(=O)CN2CCN(CC(=O)O)CCN(CC(=O)O)CCN(CC(=O)O)CC2)CC1)C(C)C)C(N)=O` [DOTA-[arg^6, Hse^7]MJ9] ({DOTA}-[X1][dR][hSer]WAVGH[Sta]L-NH2), for which the “Amount of intact tracer after incubation” value was 18.2 ± 1.9.
Consider `CCCC[C@H](NC(=O)[C@H](Cc1ccccc1)NC(=O)[C@H](Cc1c[nH]cn1)NC(=O)CCNC(=O)[C@@H](NC(=O)[C@H](C)NC(=O)[C@H](Cc1c[nH]c2ccccc12)NC(=O)[C@H](CCC(N)=O)NC(=O)[C@@H](Cc1ccccc1)NC(=O)CN1CCN(CC(=O)O)CCN(CC(=O)O)CCN(CC(=O)O)CC1)C(C)C)C(N)=O` [UL, reference compound] ({DOTA}-[dF]QWAV[βAla]HF[Nle]-NH2), for which the “Amount of intact tracer after incubation” value is 4.3 ± 0.2.
Turning to `CC(C)C[C@H](NC(=O)C[C@H](O)[C@H](CC(C)C)NC(=O)[C@H](Cc1c[nH]cn1)NC(=O)CNC(=O)[C@@H](NC(=O)[C@H](C)NC(=O)[C@H](Cc1c[nH]c2ccccc12)NC(=O)[C@H](CCC(N)=O)NC(=O)[C@@H](Cc1ccccc1)NC(=O)CN1CCC(NC(=O)CN2CCN(CC(=O)O)CCN(CC(=O)O)CCN(CC(=O)O)CC2)CC1)C1CCCC1)C(N)=O` [DOTA-[Cpg^10]MJ9] ({DOTA}-[X1][dF]QWA[Gly(cPent)]GH[Sta]L-NH2), the “Amount of intact tracer after incubation” value was 25.3 ± 1.4.
For the molecule `CC(C)C[C@H](NC(=O)C[C@H](O)[C@H](CC(C)C)NC(=O)[C@H](Cc1c[nH]cn1)NC(=O)CNC(=O)[C@@H](NC(=O)[C@H](C)NC(=O)[C@](C)(Cc1c[nH]c2ccccc12)NC(=O)[C@H](CCC(N)=O)NC(=O)[C@@H](Cc1ccccc1)NC(=O)CN1CCC(NC(=O)CN2CCN(CC(=O)O)CCN(CC(=O)O)CCN(CC(=O)O)CC2)CC1)C1CCCC1)C(N)=O` [DOTA-[α-Me-Trp^8, Cpg^10]MJ9] ({DOTA}-[X1][dF]Q[αMeW]A[Gly(cPent)]GH[Sta]L-NH2), the “Amount of intact tracer after incubation” value was 25.5 ± 1.9.
Turning to `CC(C)C[C@H](NC(=O)C[C@H](O)[C@H](CC(C)C)NC(=O)[C@H](Cc1c[nH]cn1)NC(=O)CNC(=O)[C@@H](NC(=O)[C@H](CO)NC(=O)[C@H](Cc1c[nH]c2ccccc12)NC(=O)[C@H](CCO)NC(=O)[C@@H](Cc1ccccc1)NC(=O)CN1CCC(NC(=O)CN2CCN(CC(=O)O)CCN(CC(=O)O)CCN(CC(=O)O)CC2)CC1)C(C)C)C(N)=O` [DOTA-[Hse^7, Ser^9]MJ9] ({DOTA}-[X1][dF][hSer]WSVGH[Sta]L-NH2), the “Amount of intact tracer after incubation” value was 14.5 ± 0.8.
Regarding `CC(C)C[C@H](NC(=O)C[C@H](O)[C@H](CC(C)C)NC(=O)[C@H](Cc1c[nH]cn1)NC(=O)CNC(=O)[C@@H](NC(=O)[C@H](C)NC(=O)[C@H](Cc1c[nH]c2ccccc12)NC(=O)[C@H](CCO)NC(=O)[C@@H](Cc1ccccc1)NC(=O)CN1CCC(NC(=O)CN2CCN(CC(=O)O)CCN(CC(=O)O)CCN(CC(=O)O)CC2)CC1)C1CCCC1)C(N)=O` [DOTA-[Hse^7, Cpg^10]MJ9] ({DOTA}-[X1][dF][hSer]WA[Gly(cPent)]GH[Sta]L-NH2), the “Amount of intact tracer after incubation” value was found to be 28.1 ± 2.4.
In the case of `CC(C)C[C@H](NC(=O)C[C@H](O)[C@H](CC(C)C)NC(=O)[C@H](Cc1c[nH]cn1)NC(=O)CNC(=O)[C@@H](NC(=O)[C@H](C)NC(=O)[C@](C)(Cc1c[nH]c2ccccc12)NC(=O)[C@H](CCC(N)=O)NC(=O)[C@@H](Cc1ccccc1)NC(=O)[C@H]1CC[C@H](CNC(=O)CN2CCN(CC(=O)O)CCN(CC(=O)O)CCN(CC(=O)O)CC2)CC1)C(C)C)C(N)=O` [DOTA-[Txa^5, α-Me-Trp^8]MJ9], the “Amount of intact tracer after incubation” value was determined as 30.6 ± 0.8.
For `CC(C)C[C@H](NC(=O)C[C@H](O)[C@H](CC(C)C)NC(=O)[C@H](Cc1c[nH]cn1)NC(=O)CN(C)C(=O)[C@@H](NC(=O)[C@H](C)NC(=O)[C@H](Cc1c[nH]c2ccccc12)NC(=O)[C@H](CCO)NC(=O)[C@@H](Cc1ccccc1)NC(=O)CN1CCC(NC(=O)CN2CCN(CC(=O)O)CCN(CC(=O)O)CCN(CC(=O)O)CC2)CC1)C(C)C)C(N)=O` [DOTA-[Hse^7, N—Me-Gly^11]MJ9] ({DOTA}-[X1][dF][hSer]WAV[Sar]H[Sta]L-NH2), the “Amount of intact tracer after incubation” value was 13.8 ± 0.7.
As for `CC(C)C[C@H](NC(=O)C[C@H](O)[C@H](CC(C)C)NC(=O)[C@H](Cc1c[nH]cn1)NC(=O)CNC(=O)[C@@H](NC(=O)[C@H](C)NC(=O)[C@H](Cc1c[nH]c2ccccc12)NC(=O)[C@H](CCC(N)=O)NC(=O)[C@@H](Cc1ccccc1)NC(=O)CN1CCC(NC(=O)[C@@H](CN)NC(=O)[C@@H](CCCN)NC(=O)CN2CCN(CC(=O)O)CCN(CC(=O)O)CCN(CC(=O)O)CC2)CC1)C(C)C)C(N)=O` [DOTA-orn^3-dap^4-MJ9] ({DOTA}-[dOrn][dDap][X1][dF]QWAVGH[Sta]L-NH2), the figure is 5.9 ± 0.5.
As for `CC(C)C[C@H](NC(=O)C[C@H](O)[C@H](CC(C)C)NC(=O)[C@H](Cc1c[nH]cn1)NC(=O)CNC(=O)[C@@H](NC(=O)[C@H](C)NC(=O)[C@H](Cc1csc2ccccc12)NC(=O)[C@H](CCC(N)=O)NC(=O)[C@@H](Cc1ccccc1)NC(=O)CN1CCC(NC(=O)CN2CCN(CC(=O)O)CCN(CC(=O)O)CCN(CC(=O)O)CC2)CC1)C1CCCCC1)C(N)=O` [DOTA-[Bta^8, Chg^10]MJ9] ({DOTA}-[X1][dF]Q[Bta]A[Chg]GH[Sta]L-NH2), the figure is 2.5 ± 1.0; as for `CC(C)C[C@H](NC(=O)C[C@H](O)[C@H](CC(C)C)NC(=O)[C@H](Cc1c[nH]cn1)NC(=O)CNC(=O)[C@@H](NC(=O)[C@H](CO)NC(=O)[C@H](Cc1c[nH]c2ccccc12)NC(=O)[C@H](CCC(N)=O)NC(=O)[C@@H](Cc1ccccc1)NC(=O)CN1CCC(NC(=O)CN2CCN(CC(=O)O)CCN(CC(=O)O)CCN(CC(=O)O)CC2)CC1)C(C)C)C(N)=O` [DOTA-[Ser^9]MJ9] ({DOTA}-[X1][dF]QWSVGH[Sta]L-NH2), 9.8 ± 4.3.
Consider `CC(C)C[C@H](NC(=O)C[C@H](O)[C@H](CC(C)C)NC(=O)[C@H](Cc1c[nH]cn1)NC(=O)CNC(=O)[C@@H](NC(=O)[C@H](C)NC(=O)[C@H](Cc1c[nH]c2ccccc12)NC(=O)[C@H](CCC(N)=O)NC(=O)[C@@H](CCCNC(=N)N)NC(=O)CN1CCC(NC(=O)CN2CCN(CC(=O)O)CCN(CC(=O)O)CCN(CC(=O)O)CC2)CC1)C(C)C)C(N)=O` [DOTA-[arg^6]MJ9] ({DOTA}-[X1][dR]QWAVGH[Sta]L-NH2), for which the “Amount of intact tracer after incubation” value is 13.5 ± 3.4.
As for `CCCC[C@H](NC(=O)[C@H](Cc1ccccc1)NC(=O)[C@H](Cc1c[nH]cn1)NC(=O)CCNC(=O)[C@@H](NC(=O)[C@H](C)NC(=O)[C@](C)(Cc1c[nH]c2ccccc12)NC(=O)[C@H](CCC(N)=O)NC(=O)[C@@H](Cc1ccccc1)NC(=O)CN1CCN(CC(=O)O)CCN(CC(=O)O)CCN(CC(=O)O)CC1)C(C)C)C(N)=O` [DOTA-[α-Me-Trp^8]UL] ({DOTA}-[dF]Q[αMeW]AV[βAla]HF[Nle]-NH2), the “Amount of intact tracer after incubation” value is 10.2 ± 2.7.
Take `CC(C)C[C@H](NC(=O)C[C@H](O)[C@H](CC(C)C)NC(=O)[C@H](Cc1c[nH]cn1)NC(=O)CN(C)C(=O)[C@@H](NC(=O)[C@H](C)NC(=O)[C@](C)(Cc1c[nH]c2ccccc12)NC(=O)[C@H](CCC(N)=O)NC(=O)[C@@H](Cc1ccccc1)NC(=O)CN1CCC(NC(=O)CN2CCN(CC(=O)O)CCN(CC(=O)O)CCN(CC(=O)O)CC2)CC1)C(C)C)C(N)=O` [DOTA-[α-Me-Trp^8, N—Me-Gly^11]MJ9]: the “Amount of intact tracer after incubation” value came out at 14.3 ± 1.2.
Turning to `CC(C)C[C@H](NC(=O)C[C@H](O)[C@H](CC(C)C)NC(=O)[C@H](Cc1c[nH]cn1)NC(=O)CNC(=O)[C@@H](NC(=O)[C@H](C)NC(=O)[C@H](Cc1c[nH]c2ccccc12)NC(=O)[C@H](CCO)NC(=O)[C@@H](Cc1ccccc1)NC(=O)CN1CCC(NC(=O)CN2CCN(CC(=O)O)CCN(CC(=O)O)CCN(CC(=O)O)CC2)CC1)C1CCCCC1)C(N)=O` [DOTA-[Hse^7, Chg^10]MJ9] ({DOTA}-[X1][dF][hSer]WA[Chg]GH[Sta]L-NH2), the “Amount of intact tracer after incubation” value is listed as 33.4 ± 1.0.
On to `CCCC[C@H](NC(=O)[C@H](Cc1ccccc1)NC(=O)[C@H](Cc1c[nH]cn1)NC(=O)CCNC(=O)[C@@H](NC(=O)[C@H](C)NC(=O)[C@H](Cc1csc2ccccc12)NC(=O)[C@H](CCC(N)=O)NC(=O)[C@@H](Cc1ccccc1)NC(=O)CN1CCN(CC(=O)O)CCN(CC(=O)O)CCN(CC(=O)O)CC1)C(C)C)C(N)=O` [DOTA-[Bta^8]UL] ({DOTA}-[dF]Q[Bta]AV[βAla]HF[Nle]-NH2), for which the “Amount of intact tracer after incubation” value was found to be 0 ± 0.
As to `CC(C)C[C@H](NC(=O)C[C@H](O)[C@H](CC(C)C)NC(=O)[C@H](Cc1c[nH]cn1)NC(=O)CNC(=O)[C@@H](NC(=O)[C@H](C)NC(=O)[C@H](Cc1c[nH]c2ccccc12)NC(=O)[C@H](CCC(N)=O)NC(=O)[C@@H](Cc1ccccc1)NC(=O)CN1CCC(NC(=O)CN2CCN(CC(=O)O)CCN(CC(=O)O)CCN(CC(=O)O)CC2)CC1)C1CCCCC1)C(N)=O` [DOTA-[Chg^10]MJ9] ({DOTA}-[X1][dF]QWA[Chg]GH[Sta]L-NH2), the “Amount of intact tracer after incubation” value amounted to 8.4 ± 0.9.
